Data from BindingDB's records for doi:10.1021/acschembio.5b00370 (University of Wisconsin-Madison, 2015).

Target: Probable UDP-galactopyranose mutase (Klebsiella pneumoniae, UniProt Q48481)
Assay: Fluorescence Polarization Assay
Method: Polarization for the fluorescein-UDP conjugated probe in the presence of inhibitors was measured on a Tecan M1000 microplate reader, exciting with 470 nm light and monitoring emission at 525 nm. Each condition was tested in triplicate in the presence of 220 nM K. pneumoniae UGM and 23.3 nM of the probe.

Probable UDP-galactopyranose mutase, sequence (Q48481 whole entry): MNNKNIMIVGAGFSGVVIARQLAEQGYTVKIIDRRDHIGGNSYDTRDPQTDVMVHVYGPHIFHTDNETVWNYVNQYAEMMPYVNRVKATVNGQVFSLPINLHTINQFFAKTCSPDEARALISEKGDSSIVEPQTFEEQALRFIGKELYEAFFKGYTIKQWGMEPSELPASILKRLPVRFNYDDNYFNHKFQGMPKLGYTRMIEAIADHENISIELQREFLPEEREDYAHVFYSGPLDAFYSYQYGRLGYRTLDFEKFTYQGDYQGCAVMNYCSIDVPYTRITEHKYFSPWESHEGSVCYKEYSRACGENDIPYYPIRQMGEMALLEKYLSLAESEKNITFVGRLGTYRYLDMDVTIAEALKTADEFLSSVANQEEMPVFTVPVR

Kd	Structure (SMILES)
43 µM	O=C(O)CC1Sc2nnc(-c3ccco3)n2N=C1c1ccccc1 (configuration not stated) [2‐[3‐(Furan‐2‐yl)‐6‐phenyl‐7H‐[1,2,4]triazolo[3,4‐b][1,3,4]thiadiazin‐7‐yl]acetate (6)]
6 µM	C=CCNc1nc(-c2cc(C)n(CCC(=O)O)c2C)cs1 [3‐{2,5‐Dimethyl‐3‐[2‐(prop‐2‐en‐1‐ylamino)‐1,3‐thiazol‐4‐yl]pyrrol‐1‐yl}propanoate (10)]
